Experimental data as given in a compilation of properties of binary mixtures (doi:10.1016/j.molliq.2017.07.014).

Assay: xn = mol fraction of the nth substance listed
Conditions: 101 kPa

CCCC[P+](C)(CCCC)CCCC.COS(=O)(=O)[O-] + CN1CCCC1=O
Conditions	speed of sound, 293.15 K [m/s]	speed of sound, 298.15 K [m/s]	speed of sound, 303.15 K [m/s]	speed of sound, 308.15 K [m/s]	viscosity, 293.15 K [mPa·s]	viscosity, 298.15 K [mPa·s]	viscosity, 303.15 K [mPa·s]	viscosity, 308.15 K [mPa·s]
x1 = 0.056	1574	–	1556	1536	9.6	–	2.01	2.01
x1 = 0.0914	1580	1576	–	1540	19.6	13.2	–	2.5
x1 = 0.1311	1585	1580	1564	1544	28	18	7.8	3.4
x1 = 0.1773	1588	1584	–	1548	43	23.7	–	6.4
x1 = 0.2318	1590	1585	–	1549	67	39	–	8.9
x1 = 0.2971	1587	1581	–	1546	100	51	–	13.9
x1 = 0.3764	1582	–	1561	1542	138	–	40	20.5
x1 = 0.4752	1578	1572	1557	1539	188	114	65	31
x1 = 0.6014	1575	1567	1552	1536	290	170	108	67
x1 = 0.7129	1573	–	1548	1533	440	–	198	131
x1 = 0.8086	–	–	–	1528	–	–	–	–
x1 = 0.8515	1568	1553	1538	–	580	410	300	–
x1 = 0.9022	1566	1551	–	–	630	450	–	–
x1 = 0.9468	1565	1549	–	–	680	490	–	–
x1 = 1	1564	–	1530	–	730	–	380	–
